Test results: patent US10335365B2, “Bladder cancer specific ligand peptides” (The Regents of the University of California, priority 2009, dated 2019)
Positions of bridges follow the written chain, without caps; N, C: chain ends. Non-standard residues stand in square brackets, D forms with d. No end group written: not given here.

Test system: 5637 bladder cancer cells
Assay: Alanine walk and X5 glycine addition, bead binding to 5637 cells
Design: species or system human
Details: compared with parental PLZ4
Description: FIG. 6A-C. Binding of PLZ4 to ανβ3 integrin A. PLZ4 binds to ανβ3 integrin. Beads coated with PLZ4 peptides were incubated with K562 cells transfected with different integrin subunits. PLZ4 can only bind to K562 cells when ανβ3 integrin is expressed on the surface. B. Alanine walk to determine the amino acids important for cell binding. Each amino acid in PLZ4 (SEQ ID NO: 5) was replaced with alanine one at a time to generate beads covered with new peptides (SEQ ID NOS 24-30, respectively, in order of appearance) (alanine walk), and tested for their binding to 5637 bladder cancer cells. Semi-quantitative system was used to determine binding activity: ++++ means very strong binding with 75-100% bead surface covered by cells; +++ means strong binding with 50-74% bead surface covered by cells; […] binding with 25-49% bead surface covered by cells; + means weak binding with 1-24% bead surface covered by cells; − means no binding. C. The effects of glycine residues at the X5 position on the binding of PLZ4 to bladder cancer cells. The peptides on beads in each panel have the same backbone sequence (cQDGRKGFc; SEQ ID NO:11) as PLZ4 (cQDGRMGFc; SEQ ID NO:12) except the M at the X5 position has been replaced with K. One (c) to six (h) numbers of glycine were conjugated to K from Panel c to h (SEQ ID NO:13). The OBOC beads were incubated with 5637 TCC cells. […]

In the case of “cQDGRKGFc ([dC]QDGRKGF[dC]; disulfide 1-9) [PLZ4 backbone with the M at the X5 position replaced with K]”, the “binding of modified peptides on beads to 5637 cells” value is reported as “no significant changes in binding”.
